Source: patent US20240300932A1, “N-PHENYLIMINE DERIVATIVE AND PREPARATION METHOD AND USE THEREOF” (Guizhou University, priority 2023, published 2024)

Tests used:
Test in all cases: Post-emergence herbicidal activity test (stem and leaf spray, pot culture)
Type in all cases: in vivo
Settings in all cases: 3 weeks after spraying
Echinochloa crusgalli = tested on: Echinochloa crusgalli
Procedure, shortened: (§1)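 Activity is given as a 0–5 grade of fresh weight growth control, scored three weeks after a single stem-and-leaf spray. Weeds in farmland loam were treated at the 2- to 3-leaf stage at 10, 5 and 2.5 g/mu, with methyl oleate added as synergist.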

Portulaca oleracea = tested on: Portulaca oleracea
Procedure, shortened: as §1

Abutilon theophrasti = tested on: Abutilon theophrasti
Procedure, shortened: as §1

Setaria viridis = tested on: Setaria viridis
Procedure, shortened: as §1

Amaranthus retroflexus = tested on: Amaranthus retroflexus
Procedure, shortened: as §1

Trifoliumre pensL. = tested on: Trifoliumre pensL.
Procedure, shortened: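 Pot-grown weeds in loam (pH 7), greenhouse at 20–30 °C, sprayed once post-emergence at the 2–3-leaf stage. Compound in acetone with Tween 80 plus methyl oleate oil (1.5 L/ha), applied at 10, 5 and 2.5 g/mu by spray tower. Effect scored 3 weeks after spraying, averaged over three repeats.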

| SMILES | Post-emergence herbicidal activity, E. crusgalli (grade) (Echinochloa crusgalli; dosage 2.5 g/mu) | Post-emergence herbicidal activity, E. crusgalli (grade) (Echinochloa crusgalli; dosage 5 g/mu) | Post-emergence herbicidal activity, E. crusgalli (grade) (Echinochloa crusgalli; dosage 10 g/mu) | Post-emergence herbicidal activity, P. oleracea (grade) (Portulaca oleracea; dosage 2.5 g/mu) | Post-emergence herbicidal activity, P. oleracea (grade) (Portulaca oleracea; dosage 5 g/mu) | Post-emergence herbicidal activity, P. oleracea (grade) (Portulaca oleracea; dosage 10 g/mu) | Post-emergence herbicidal activity, A. theophrasti (grade) (Abutilon theophrasti; dosage 2.5 g/mu) | Post-emergence herbicidal activity, A. theophrasti (grade) (Abutilon theophrasti; dosage 5 g/mu) | Post-emergence herbicidal activity, A. theophrasti (grade) (Abutilon theophrasti; dosage 10 g/mu) | Post-emergence herbicidal activity, S. viridis (grade) (Setaria viridis; dosage 2.5 g/mu) | Post-emergence herbicidal activity, S. viridis (grade) (Setaria viridis; dosage 5 g/mu) | Post-emergence herbicidal activity, S. viridis (grade) (Setaria viridis; dosage 10 g/mu) | Post-emergence herbicidal activity, A. retroflexus (grade) (Amaranthus retroflexus; dosage 2.5 g/mu) | Post-emergence herbicidal activity, A. retroflexus (grade) (Amaranthus retroflexus; dosage 5 g/mu) | Post-emergence herbicidal activity, A. retroflexus (grade) (Amaranthus retroflexus; dosage 10 g/mu) | Post-emergence herbicidal activity, Trifoliumre pensL. (grade) (Trifoliumre pensL.; dosage 2.5 g/mu) | Post-emergence herbicidal activity, Trifoliumre pensL. (grade) (Trifoliumre pensL.; dosage 5 g/mu) | Post-emergence herbicidal activity, Trifoliumre pensL. (grade) (Trifoliumre pensL.; dosage 10 g/mu) |
| --- | --- | --- | --- | --- | --- | --- | --- | --- | --- | --- | --- | --- | --- | --- | --- | --- | --- | --- |
| O=C1C2=C(CCCC2)C(=O)N1c1cc(OCc2nc(-c3ccc(Br)cc3Br)no2)c(Cl)cc1F [Compound A11] | 1 (Grade 1: the growth control rate is greater than or equal to 5% and less than 20%) | 2 (Grade 2: the growth control rate is greater than or equal to 20% and less than 40%) | 3 (Grade 3: the growth control rate is greater than or equal to 40% and less than 60%) | 4 (Grade 4: the growth control rate is greater than or equal to 60% and less than 85%) | 5 (Grade 5: the growth control rate is greater than or equal to 85%) | 5 (Grade 5: the growth control rate is greater than or equal to 85%) | 5 (Grade 5: the growth control rate is greater than or equal to 85%) | 5 (Grade 5: the growth control rate is greater than or equal to 85%) | 5 (Grade 5: the growth control rate is greater than or equal to 85%) | 2 (Grade 2: the growth control rate is greater than or equal to 20% and less than 40%) | 3 (Grade 3: the growth control rate is greater than or equal to 40% and less than 60%) | 4 (Grade 4: the growth control rate is greater than or equal to 60% and less than 85%) | 5 (Grade 5: the growth control rate is greater than or equal to 85%) | 5 (Grade 5: the growth control rate is greater than or equal to 85%) | 5 (Grade 5: the growth control rate is greater than or equal to 85%) | 4 (Grade 4: the growth control rate is greater than or equal to 60% and less than 85%) | 5 (Grade 5: the growth control rate is greater than or equal to 85%) | 5 (Grade 5: the growth control rate is greater than or equal to 85%) |
| O=C1C2=C(CCCC2)C(=O)N1c1cc(OCc2nc(-c3ccccc3F)no2)c(Cl)cc1F [Compound A12] | 1 (Grade 1: the growth control rate is greater than or equal to 5% and less than 20%) | 2 (Grade 2: the growth control rate is greater than or equal to 20% and less than 40%) | 3 (Grade 3: the growth control rate is greater than or equal to 40% and less than 60%) | 4 (Grade 4: the growth control rate is greater than or equal to 60% and less than 85%) | 5 (Grade 5: the growth control rate is greater than or equal to 85%) | 5 (Grade 5: the growth control rate is greater than or equal to 85%) | 5 (Grade 5: the growth control rate is greater than or equal to 85%) | 5 (Grade 5: the growth control rate is greater than or equal to 85%) | 5 (Grade 5: the growth control rate is greater than or equal to 85%) | 2 (Grade 2: the growth control rate is greater than or equal to 20% and less than 40%) | 3 (Grade 3: the growth control rate is greater than or equal to 40% and less than 60%) | 4 (Grade 4: the growth control rate is greater than or equal to 60% and less than 85%) | 5 (Grade 5: the growth control rate is greater than or equal to 85%) | 5 (Grade 5: the growth control rate is greater than or equal to 85%) | 5 (Grade 5: the growth control rate is greater than or equal to 85%) | 4 (Grade 4: the growth control rate is greater than or equal to 60% and less than 85%) | 5 (Grade 5: the growth control rate is greater than or equal to 85%) | 5 (Grade 5: the growth control rate is greater than or equal to 85%) |
| O=C1C2=C(CCCC2)C(=O)N1c1ccc(Cl)c(OCc2nc(-c3cc(F)cc(Br)c3)no2)c1F [Compound A13, 2-(3-(3-(3-(3-bromo-5-fluorophenyl)-1,2,4-oxadiazole-5-yl)methoxy)-4-chloro-2-fluorophenyl)-4,5,6,7-tetrahydro-1H-isoindole-1,3(2H)-dione] | 1 (Grade 1: the growth control rate is greater than or equal to 5% and less than 20%) | 2 (Grade 2: the growth control rate is greater than or equal to 20% and less than 40%) | 3 (Grade 3: the growth control rate is greater than or equal to 40% and less than 60%) | 4 (Grade 4: the growth control rate is greater than or equal to 60% and less than 85%) | 5 (Grade 5: the growth control rate is greater than or equal to 85%) | 5 (Grade 5: the growth control rate is greater than or equal to 85%) | 5 (Grade 5: the growth control rate is greater than or equal to 85%) | 5 (Grade 5: the growth control rate is greater than or equal to 85%) | 5 (Grade 5: the growth control rate is greater than or equal to 85%) | 2 (Grade 2: the growth control rate is greater than or equal to 20% and less than 40%) | 3 (Grade 3: the growth control rate is greater than or equal to 40% and less than 60%) | 4 (Grade 4: the growth control rate is greater than or equal to 60% and less than 85%) | 5 (Grade 5: the growth control rate is greater than or equal to 85%) | 5 (Grade 5: the growth control rate is greater than or equal to 85%) | 5 (Grade 5: the growth control rate is greater than or equal to 85%) | 4 (Grade 4: the growth control rate is greater than or equal to 60% and less than 85%) | 5 (Grade 5: the growth control rate is greater than or equal to 85%) | 5 (Grade 5: the growth control rate is greater than or equal to 85%) |
| O=C1C2=C(CCCC2)C(=O)N1c1cc(OCc2nc(-c3ccc(F)c(F)c3)no2)c(Cl)cc1F [Compound A14] | 1 (Grade 1: the growth control rate is greater than or equal to 5% and less than 20%) | 2 (Grade 2: the growth control rate is greater than or equal to 20% and less than 40%) | 3 (Grade 3: the growth control rate is greater than or equal to 40% and less than 60%) | 4 (Grade 4: the growth control rate is greater than or equal to 60% and less than 85%) | 5 (Grade 5: the growth control rate is greater than or equal to 85%) | 5 (Grade 5: the growth control rate is greater than or equal to 85%) | 5 (Grade 5: the growth control rate is greater than or equal to 85%) | 5 (Grade 5: the growth control rate is greater than or equal to 85%) | 5 (Grade 5: the growth control rate is greater than or equal to 85%) | 2 (Grade 2: the growth control rate is greater than or equal to 20% and less than 40%) | 3 (Grade 3: the growth control rate is greater than or equal to 40% and less than 60%) | 4 (Grade 4: the growth control rate is greater than or equal to 60% and less than 85%) | 5 (Grade 5: the growth control rate is greater than or equal to 85%) | 5 (Grade 5: the growth control rate is greater than or equal to 85%) | 5 (Grade 5: the growth control rate is greater than or equal to 85%) | 4 (Grade 4: the growth control rate is greater than or equal to 60% and less than 85%) | 5 (Grade 5: the growth control rate is greater than or equal to 85%) | 5 (Grade 5: the growth control rate is greater than or equal to 85%) |
